Reference: US11834401B2, “Treating and preventing diseases by modulating cell mechanics” (THE JOHNS HOPKINS UNIVERSITY, priority 2013, dated 2023)

Assays:
[1] = molecular target: T1, Dictyostelium myosin II ADCT (Dictyostelium discoideum, UniProt P08799); test: In vitro myosin assembly assay, with or without 14-3-3; format: biochemical; details: with or without purified 14-3-3
T1 construct: fused to the assembly domains of Dictyostelium myosin II (residues 1533-1823); 6xHis (N); mCherry (N); made in house; host or cells: E. coli BL-21 Star (DE3)
T1 sequence (P08799 1533-1823): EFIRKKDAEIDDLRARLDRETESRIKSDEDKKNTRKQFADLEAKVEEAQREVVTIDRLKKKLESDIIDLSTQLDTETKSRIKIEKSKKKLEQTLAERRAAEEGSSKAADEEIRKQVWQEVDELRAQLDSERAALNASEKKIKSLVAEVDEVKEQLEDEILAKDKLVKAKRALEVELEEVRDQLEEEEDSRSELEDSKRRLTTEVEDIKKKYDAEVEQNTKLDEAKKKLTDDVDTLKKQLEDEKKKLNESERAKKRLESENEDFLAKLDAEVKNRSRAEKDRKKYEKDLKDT
Excerpt: (§1) The sedimentation assays were used to assess myosin II assembly in cells. The assembly assay used purified proteins (N-terminal 6×His tag (SEQ ID NO: 1), fused to the mCherry fluorophore, fused to the assembly domains of Dictyostelium myosin II (residues 1533-1823), human myosin IIA (residues 1722-1960), and human myosin IIB (residues 1729-1976), and 6×His-tagged (SEQ ID NO: 1) fused Dictyostelium 14-3-3). Purified chicken nonmuscle IIB heavy meromyosin (HMM) was used for in vitro motility.
(§2) Bacterial expression plasmids coding for an N-terminal 6×His tag (SEQ ID NO: 1), fused to the mCherry fluorophore, fused to the assembly domains of Dictyostelium myosin II (residues 1533-1823), human myosin IIA (residues 1722-1960), or human myosin IIB (residues 1729-1976) were generated using standard cloning techniques.
Dictyostelium 14-3-3 was also expressed in bacteria as a 6×His-tagged (SEQ ID NO: 1) fusion protein (Zhou Q et al., 2010). Proteins were expressed in BL-21 Star™ (DE3) (Invitrogen) E. coli in LB shaking culture overnight at room temperature. […] Protein purity was verified by SDS-PAGE followed by Coomassie Blue staining, and concentration was quantified by UV absorbance using the calculated extinction coefficient for each protein's amino acid sequence. […]

human myosin IIB = molecular target: T2, human myosin IIB (Homo sapiens, UniProt P35580); test: In vitro myosin assembly assay; format: biochemical; details: n=3
T2 construct: human myosin IIB (residues 1729-1976); 6xHis (N); mCherry (N); made in house; host or cells: E. coli BL-21 Star (DE3)
T2 sequence (P35580 1729-1976): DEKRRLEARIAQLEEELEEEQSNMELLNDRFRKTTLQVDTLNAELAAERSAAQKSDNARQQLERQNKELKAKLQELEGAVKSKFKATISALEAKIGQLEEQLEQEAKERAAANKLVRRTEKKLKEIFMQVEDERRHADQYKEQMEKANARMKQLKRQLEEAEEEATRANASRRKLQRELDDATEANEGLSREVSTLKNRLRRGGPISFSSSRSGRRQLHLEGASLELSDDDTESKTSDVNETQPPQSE
Excerpt: as §1, §2
In vitro assembly of myosin was conducted according to the method of Zhou et al, 2010 (Zhou Q et al., 2010), with a number of modifications. The protein concentration for each species in the tube was increased to […] to ensure that the smaller protein was adequately visible by Coomassie Blue staining, and the incubation time and temperature was adjusted to 30 min at the physiological temperature for each myosin species (22° C. for Dictyostelium myosin, 37° C. for human myosins). These temperatures were also used during the centrifugation step.

microtubule = test: Microtubule structure; format: cell-based
ASPC-1 cells = test: Matrigel invasion assay; format: cell-based, human; details: transwells with 2 mg/ml Matrigel
Description: Cells were treated as in migration assay, but plated in transwells containing 2 mg/ml Matrigel (BD Biosciences).

myosin II [2] = test: Myosin II cortical localization by SIM, TIRF and confocal imaging; format: cell-based, Dictyostelium discoideum; details: myoII null cells
Description: (§3) Micropipette aspiration was used for cortical tension and creep response measurements. Confocal imaging was performed on a Zeiss 510 Meta with a 63× (numerical aperture [NA] 1.4) objective (Carl Zeiss, Jena, Germany). Epifluorescence and TIRF imaging was performed in a 22° C. temperature controlled room with an Olympus IX81 microscope using a 40× (NA 1.3) or 60× (NA 1.49) objective and a 1.4× optovar (Olympus, Center Valley, Pa.), as previously described. Image analysis was performed with ImageJ (rsb.info.nih.gov/ij).
(§4) Imaging conditions during primary screen are described above. All other image analysis was performed as previously described (Kee Y S, et al., 2012). Cells were transferred from Petri dishes (with 0.1% DMSO incubation in growth media of 4 hrs) to imaging chambers and allowed to adhere for 20 min in growth media with 0.1% DMSO. After the cells adhered, the growth media was replaced with 2-(N-morpholino)ethanesulfonic acid (MES) starvation buffer (50 mM MES, pH 6.8, 2 mM MgCl2, 0.2 mM CaCl2) with 0.1% DMS. Confocal imaging was performed on aZeiss 510 Meta with a 63× (numerical aperture [NA] 1.4) objective (Carl Zeiss, Jena, Germany). Epifluorescence and TIR imaging was performed in a 22° C. temperature controlled room with an Olympus IX81 microscope using a 40× (NA 1.3) or 60× (NA […]) objective and a 1.4× optovar (Olympus, Center Valley, Pa.), as previously described. Image analysis was performed with ImageJ (rsb.info.nih.gov/ij). Many data sets were independently analyzed by multiple investigators.

myosin II [3] = molecular target: T3, myosin II (Dictyostelium discoideum, UniProt P08799, T1823D/T1833D/T2029D); test: as above; format: cell-based; details: myoII null cells, 500 nM, 10 minutes post-treatment
T3 construct: expressed in transfected cells; host or cells: Dictyostelium discoideum myoII null cells rescued with GFP-myosin II
T3 sequence (P08799 whole entry T1823D/T1833D/T2029D): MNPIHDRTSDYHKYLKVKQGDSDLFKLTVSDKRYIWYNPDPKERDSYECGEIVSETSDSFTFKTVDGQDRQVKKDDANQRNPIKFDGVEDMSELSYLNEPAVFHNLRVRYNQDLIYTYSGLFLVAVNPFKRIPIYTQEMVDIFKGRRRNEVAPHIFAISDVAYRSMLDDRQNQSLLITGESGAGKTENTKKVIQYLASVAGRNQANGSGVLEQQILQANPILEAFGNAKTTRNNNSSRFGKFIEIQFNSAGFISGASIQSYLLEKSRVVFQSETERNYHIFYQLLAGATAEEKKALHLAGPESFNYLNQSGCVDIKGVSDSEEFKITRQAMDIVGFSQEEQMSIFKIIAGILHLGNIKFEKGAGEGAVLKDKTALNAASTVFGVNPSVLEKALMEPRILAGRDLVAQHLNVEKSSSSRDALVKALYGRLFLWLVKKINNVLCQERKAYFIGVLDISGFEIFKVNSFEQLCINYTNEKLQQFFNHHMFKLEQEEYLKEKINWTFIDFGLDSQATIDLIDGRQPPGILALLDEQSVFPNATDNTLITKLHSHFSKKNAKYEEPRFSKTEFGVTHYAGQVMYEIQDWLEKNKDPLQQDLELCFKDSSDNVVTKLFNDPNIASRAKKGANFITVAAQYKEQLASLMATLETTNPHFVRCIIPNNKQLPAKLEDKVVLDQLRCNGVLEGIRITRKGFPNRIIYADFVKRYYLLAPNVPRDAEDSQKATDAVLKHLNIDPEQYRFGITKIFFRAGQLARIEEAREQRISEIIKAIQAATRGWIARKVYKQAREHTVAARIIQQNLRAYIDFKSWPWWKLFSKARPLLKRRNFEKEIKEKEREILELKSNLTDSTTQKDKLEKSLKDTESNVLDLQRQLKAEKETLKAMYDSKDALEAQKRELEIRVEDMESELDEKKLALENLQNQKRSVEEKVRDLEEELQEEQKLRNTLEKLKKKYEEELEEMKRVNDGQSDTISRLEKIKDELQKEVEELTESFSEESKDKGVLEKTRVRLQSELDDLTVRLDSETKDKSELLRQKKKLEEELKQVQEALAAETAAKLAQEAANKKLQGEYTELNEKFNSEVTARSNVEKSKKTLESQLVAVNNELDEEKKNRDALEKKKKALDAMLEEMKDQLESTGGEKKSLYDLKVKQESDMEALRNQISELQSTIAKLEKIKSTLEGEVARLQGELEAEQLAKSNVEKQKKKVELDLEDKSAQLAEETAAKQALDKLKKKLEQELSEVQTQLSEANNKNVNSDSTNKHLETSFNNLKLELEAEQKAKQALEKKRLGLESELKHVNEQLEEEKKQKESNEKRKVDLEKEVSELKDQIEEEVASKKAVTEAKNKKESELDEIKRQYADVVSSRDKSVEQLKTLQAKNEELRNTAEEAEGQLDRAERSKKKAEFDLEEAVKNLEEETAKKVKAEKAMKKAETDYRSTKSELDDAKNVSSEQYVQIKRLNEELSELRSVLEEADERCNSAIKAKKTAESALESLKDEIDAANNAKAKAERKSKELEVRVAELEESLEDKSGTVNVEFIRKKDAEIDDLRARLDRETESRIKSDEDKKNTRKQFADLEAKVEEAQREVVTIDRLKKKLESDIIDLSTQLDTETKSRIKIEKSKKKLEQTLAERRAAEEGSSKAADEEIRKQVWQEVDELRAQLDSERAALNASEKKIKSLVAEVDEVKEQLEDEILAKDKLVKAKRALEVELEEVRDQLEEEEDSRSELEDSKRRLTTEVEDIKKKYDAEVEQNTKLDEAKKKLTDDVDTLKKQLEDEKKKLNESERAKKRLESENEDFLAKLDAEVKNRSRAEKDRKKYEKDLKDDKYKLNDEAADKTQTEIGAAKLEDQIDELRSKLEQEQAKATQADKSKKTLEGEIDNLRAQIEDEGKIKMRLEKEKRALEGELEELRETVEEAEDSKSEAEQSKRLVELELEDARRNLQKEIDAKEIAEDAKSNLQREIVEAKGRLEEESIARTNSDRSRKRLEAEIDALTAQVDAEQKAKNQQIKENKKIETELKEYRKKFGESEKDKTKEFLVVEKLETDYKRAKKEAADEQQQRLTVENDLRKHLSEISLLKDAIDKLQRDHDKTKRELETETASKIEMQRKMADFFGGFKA
Description: as §3, §4

NMIIA, NMIIC, ACTN4 = test: Western analysis of mechanobiome protein expression; format: cell-based, human; details: Panc10.05 cells, overnight treatment
A10.7 cells = test: Micropipette aspiration mechanics; format: cell-based, human; details: PDAC A10.7 cells
Description: The instrumental and experimental setups have been previously described (Effler J C, et al., 2006; Kee Y-S, et al., 2013). Micropipette aspiration assays were all carried out in growth media with 0.1% DMSO. For cortical tension measurements of Dictyostelium cells, pressure was applied to the cell cortex with a micropipette (2-3 m radius, Rp) to the equilibrium pressure (ΔP) where the length of the cell inside the pipette (Lp) was equal to Rp. The effective cortical tension (Teff) was calculated by applying the Young-Laplace equation: ΔP=2Teff(1/Rp-1/Rc), where Rc is the radius of the cell and ΔP is the equilibrium pressure when Lp=Rp (Derganc J, et al., 2000; Octtaviani E, et al., 2006). For creep tests on mammalian strains, a constant aspiration stress was applied over 60 s. The micropipette radius was 3.5-4.5 m. For quantification, the Lp/Rp ratio values was measured every two seconds and plotted as a function of time. A10.7 and HEK293 cells could only be aspirated at a low pressure range (0.15 nN/μm^2), while HPDE, ASPC-1, and HL-60 cells could be aspirated at higher pressure ranges (0.25 nN/μm^2) because they were stiffer.

| Structure (SMILES) | in vitro assembly vs DMSO control [1] | in vitro assembly vs DMSO control (human myosin IIB) | microtubule structure (microtubule) | in vitro invasion (ASPC-1 cells) | myosin accumulation, GFP-S1 motor domain (myosin II [2]) | filament formation, GFP-3XAsp myosin (myosin II [3]) | expression of NMIIA, NMIIC, or ACTN4 (NMIIA, NMIIC, ACTN4) | cortical tension (A10.7 cells) |
| --- | --- | --- | --- | --- | --- | --- | --- | --- |
| Nc1ccc(Cl)c(Cl)c1 [3,4-DCA, 3,4-dichloroaniline] | no significant change in in vitro assembly | unaffected | neither 3,4-DCA nor 4-HAP affected microtubule structure |  |  |  |  |  |
| CC(=O)c1ccc(O)cc1 [4-HAP, 4-hydroxyacetophenone] | no significant change in in vitro assembly | unaffected | neither 3,4-DCA nor 4-HAP affected microtubule structure | dose-dependent decrease | did not show an accumulation response | generating more short filaments | does not affect the expression | decreases the cortical tension |
